Test results as given in PubChem BioAssay (NCI).
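Cells were grown in 96-well plates and exposed to each compound for 48 hours at five concentrations; endpoints were interpolated linearly between bracketing concentrations, or set to the highest concentration if not reached. GI50 is the concentration that inhibits growth by half. TGI is the concentration that stops growth completely.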

Experiments:
Assay in all cases: inhibition of tumour cell growth, NCI panel, 48 h; in the data active = GI50 below about 0.43 µM; inactive = the rest
[1] = tested on: 786-0 renal
[2] = tested on: A498 renal
[3] = tested on: A549 NSCLC
[4] = tested on: ACHN renal
[5] = tested on: BT-549 breast
[6] = tested on: COLO 205 colon
[7] = tested on: DU-145 prostate
[8] = tested on: EKVX NSCLC
[9] = tested on: HCC-2998 colon
[10] = tested on: HCT-116 colon
[11] = tested on: HCT-15 colon
[12] = tested on: HL-60(TB) leukemia
[13] = tested on: HOP-62 NSCLC
[14] = tested on: HOP-92 NSCLC
[15] = tested on: HS 578T breast
[16] = tested on: HT29 colon
[17] = tested on: IGROV1 ovarian
[18] = tested on: KM12 colon
[19] = tested on: LOX IMVI melanoma
[20] = tested on: M14 melanoma
[21] = tested on: MALME-3M melanoma
[22] = tested on: MCF7 breast
[23] = tested on: MDA-MB-231 breast
[24] = tested on: MDA-MB-435
[25] = tested on: MOLT-4 leukemia
[26] = tested on: NCI-H226 lung
[27] = tested on: NCI-H23 lung
[28] = tested on: NCI-H522 lung
[29] = tested on: OVCAR-3 ovarian
[30] = tested on: OVCAR-4 ovarian
[31] = tested on: OVCAR-5 ovarian
[32] = tested on: OVCAR-8 ovarian
[33] = tested on: PC-3 prostate
[34] = tested on: RPMI-8226 leukemia
[35] = tested on: RXF 393 renal
[36] = tested on: SF-268 CNS
[37] = tested on: SF-295 CNS
[38] = tested on: SF-539 CNS
[39] = tested on: SK-MEL-2 melanoma
[40] = tested on: SK-MEL-28 melanoma
[41] = tested on: SK-MEL-5 melanoma
[42] = tested on: SK-OV-3 ovarian
[43] = tested on: SN12C renal
[44] = tested on: SNB-19 CNS
[45] = tested on: SNB-75 CNS
[46] = tested on: SR leukemia
[47] = tested on: SW-620 colon
[48] = tested on: T-47D breast
[49] = tested on: TK-10 renal
[50] = tested on: U251 CNS
[51] = tested on: UACC-257 melanoma
[52] = tested on: UACC-62 melanoma

O=C(c1ccc(O)cc1)c1ccc(C(=O)c2ccc(O)cc2)cc1
56.2 µM: TGI [45]
98.3 µM: TGI [35]
inactive: GI50 [1] > 100 µM | GI50 [2] > 100 µM | GI50 [3] > 100 µM | GI50 [4] > 100 µM | GI50 [5] 94 µM | GI50 [6] > 100 µM | GI50 [7] > 100 µM | GI50 [8] 8.33 µM | GI50 [9] > 100 µM | GI50 [10] > 100 µM | GI50 [11] > 100 µM | GI50 [12] > 100 µM | GI50 [13] 18 µM | GI50 [14] 8.04 µM | GI50 [15] 27.4 µM | GI50 [16] > 100 µM | GI50 [17] 6.32 µM | GI50 [18] > 100 µM | GI50 [19] > 100 µM | GI50 [20] > 100 µM | GI50 [21] 35.7 µM | GI50 [22] 75.1 µM | GI50 [23] 46.9 µM | GI50 [24] > 100 µM | GI50 [25] > 100 µM | GI50 [26] 33.5 µM | GI50 [27] 75.3 µM | GI50 [28] 8.05 µM | GI50 [29] > 100 µM | GI50 [30] > 100 µM | GI50 [31] > 100 µM | GI50 [32] 20.8 µM | GI50 [33] > 100 µM | GI50 [34] 5.21 µM | GI50 [35] 26.5 µM | GI50 [36] 26.6 µM | GI50 [37] 6.06 µM | GI50 [38] 80 µM | GI50 [39] > 100 µM | GI50 [40] > 100 µM | GI50 [41] > 100 µM | GI50 [42] 23.3 µM | GI50 [43] > 100 µM | GI50 [44] 71.1 µM | GI50 [45] 22.5 µM | GI50 [46] > 100 µM | GI50 [47] > 100 µM | GI50 [48] 4.69 µM | GI50 [49] > 100 µM | GI50 [50] 16.9 µM | GI50 [51] > 100 µM | GI50 [52] > 100 µM
> 100 µM: TGI [1] | TGI [2] | TGI [3] | TGI [4] | TGI [5] | TGI [6] | TGI [7] | TGI [8] | TGI [9] | TGI [10] | TGI [11] | TGI [12] | TGI [14] | TGI [15] | TGI [16] | TGI [17] | TGI [18] | TGI [19] | TGI [20] | TGI [21] | TGI [22] | TGI [23] | TGI [24] | TGI [25] | TGI [26] | TGI [27] | TGI [28] | TGI [29] | TGI [30] | TGI [31] | TGI [32] | TGI [33] | TGI [34] | TGI [36] | TGI [37] | TGI [38] | TGI [39] | TGI [40] | TGI [41] | TGI [42] | TGI [43] | TGI [44] | TGI [46] | TGI [47] | TGI [48] | TGI [49] | TGI [50] | TGI [51] | TGI [52]
46.7 µM: TGI [13]
